Key:
Type in all cases: functional, cell-based
HCT-116 = assay: Antiproliferative activity against human HCT-116 cells assessed as reduction in cell viability incubated for 24 hrs by MTT assay; conditions: HCT-116, 24 h
HT-29 = assay: Antiproliferative activity against human HT-29 cells assessed as reduction in cell viability incubated for 24 hrs by MTT assay; conditions: HT-29, 24 h
HepG2 = assay: Antiproliferative activity against human HepG2 cells assessed as reduction in cell viability incubated for 24 hrs by MTT assay; conditions: HepG2, 24 h
MCF7 = assay: Antiproliferative activity against human MCF7 cells assessed as reduction in cell viability incubated for 24 hrs by MTT assay; conditions: MCF7, 24 h

SMILES | IC50 (HCT-116) [nM] | IC50 (HT-29) [nM] | IC50 (HepG2) [nM] | IC50 (MCF7) [nM]
CC(=O)O[C@H]1C=C([C@H](C)[C@H]2CC(C)=C(C)C(=O)O2)[C@@]2(C)CC[C@H]3[C@@H](C[C@H]4O[C@]45[C@@H](O[Si](C)(C)C(C)(C)C)C=CC(=O)[C@]35C)[C@]12O | 1770 | 1060 | 3010 | 6140
CCO/C=C/C(=O)O[C@H]1C=CC(=O)[C@]2(C)[C@H]3CC[C@]4(C)C([C@H](C)[C@H]5CC(C)=C(C)C(=O)O5)=C[C@H](OC(C)=O)[C@@]4(O)[C@@H]3C[C@H]3O[C@]132 | 670 | 590 | 570 | 1210
CC(=O)O[C@H]1C=C([C@H](C)[C@H]2CC(C)=C(C)C(=O)O2)[C@@]2(C)CC[C@H]3[C@@H](C[C@H]4O[C@]45[C@@H](O)C(N(C)CC(=O)O)CC(=O)[C@]35C)[C@]12O (stereo partly drawn) | > 20000 | > 20000 | > 20000 | > 20000
CC(=O)O[C@H]1C=C([C@H](C)[C@H]2CC(C)=C(C)C(=O)O2)[C@@]2(C)CC[C@H]3[C@@H](C[C@@H](O)[C@@]4(Cl)[C@@H](O)C=CC(=O)[C@]34C)[C@]12O | > 20000 | > 20000 | > 20000 | > 20000
C=C(C)C(=O)O[C@H]1C=CC(=O)[C@]2(C)[C@H]3CC[C@]4(C)C([C@H](C)[C@H]5CC(C)=C(C)C(=O)O5)=C[C@H](OC(C)=O)[C@@]4(O)[C@@H]3C[C@H]3O[C@]132 | 1340 | 1120 | 1450 | 2110
CC(=O)O[C@H]1C=C([C@H](C)[C@H]2CC(C)=C(C)C(=O)O2)[C@@]2(C)CC[C@H]3[C@@H](C[C@H]4O[C@]45[C@@H](O)C(n4ccnc4)CC(=O)[C@]35C)[C@]12O (stereo partly drawn) | > 20000 | > 20000 | > 20000 | > 20000
CC(=O)O[C@H]1C=C([C@H](C)[C@H]2CC(C)=C(C)C(=O)O2)[C@@]2(C)CC[C@H]3[C@@H](C[C@H]4O[C@]45[C@@H](OC(=O)/C=C/c4ccccc4)C=CC(=O)[C@]35C)[C@]12O | 1230 | 770 | 700 | 1710
C/C=C/C=C/C(=O)O[C@H]1C=CC(=O)[C@]2(C)[C@H]3CC[C@]4(C)C([C@H](C)[C@H]5CC(C)=C(C)C(=O)O5)=C[C@H](OC(C)=O)[C@@]4(O)[C@@H]3C[C@H]3O[C@]132 | 1350 | 1420 | 1520 | 2620
CCN(C)C(=O)O[C@H]1C=CC(=O)[C@]2(C)[C@H]3CC[C@]4(C)C([C@H](C)[C@H]5CC(C)=C(C)C(=O)O5)=C[C@H](OC(C)=O)[C@@]4(O)[C@@H]3C[C@H]3O[C@]132 | 1970 | 1780 | 2370 | 1790
CC(=O)O[C@H]1C=C([C@H](C)[C@H]2CC(C)=C(C)C(=O)O2)[C@@]2(C)CC[C@H]3[C@@H](C[C@H]4O[C@]45[C@@H](OC(=O)N4CCOCC4)C=CC(=O)[C@]35C)[C@]12O | 780 | 990 | 670 | 3890
CC(=O)O[C@H]1C=C([C@H](C)[C@H]2CC(C)=C(C)C(=O)O2)[C@@]2(C)CC[C@H]3[C@@H](C[C@H]4O[C@]45C(=O)C=CC(=O)[C@]35C)[C@]12O | 3110 | 3500 | 6050 | > 20000

Molecules with a lower IC50 (HCT-116), results first:

IC50 (HCT-116) [nM] | IC50 (HT-29) [nM] | IC50 (HepG2) [nM] | IC50 (MCF7) [nM] | SMILES
380 | 430 | 530 | 630 | CC(=O)O[C@H]1C=C([C@H](C)[C@H]2CC(C)=C(C)C(=O)O2)[C@@]2(C)CC[C@H]3[C@@H](C[C@H]4O[C@]45[C@@H](OC(=O)/C=C/c4cccs4)C=CC(=O)[C@]35C)[C@]12O
330 | 780 | 520 | 1060 | CC(=O)O[C@H]1C=C([C@H](C)[C@H]2CC(C)=C(C)C(=O)O2)[C@@]2(C)CC[C@H]3[C@@H](C[C@H]4O[C@]45[C@@H](OC(=O)C(CC(C)C)NC(=O)OC(C)(C)C)C=CC(=O)[C@]35C)[C@]12O (stereo partly drawn)
460 | 430 | 370 | 760 | CC(=O)O[C@H]1C=C([C@H](C)[C@H]2CC(C)=C(C)C(=O)O2)[C@@]2(C)CC[C@H]3[C@@H](C[C@H]4O[C@]45[C@@H](OC(=O)/C=C/C(=O)N4CCOCC4)C=CC(=O)[C@]35C)[C@]12O
600 | 800 | 1570 | 3050 | CC(=O)O[C@H]1C=C([C@H](C)[C@H]2CC(C)=C(C)C(=O)O2)[C@@]2(C)CC[C@H]3[C@@H](C[C@H]4O[C@]45[C@@H](OC(=O)C(NC(=O)OC(C)(C)C)C(C)C)C=CC(=O)[C@]35C)[C@]12O (stereo partly drawn)
250 | 230 | 240 | 280 | CCOC(=O)/C=C/C(=O)O[C@H]1C=CC(=O)[C@]2(C)[C@H]3CC[C@]4(C)C([C@H](C)[C@H]5CC(C)=C(C)C(=O)O5)=C[C@H](OC(C)=O)[C@@]4(O)[C@@H]3C[C@H]3O[C@]132
430 | 750 | 690 | 1210 | CCN(CC)C(=O)O[C@H]1C=CC(=O)[C@]2(C)[C@H]3CC[C@]4(C)C([C@H](C)[C@H]5CC(C)=C(C)C(=O)O5)=C[C@H](OC(C)=O)[C@@]4(O)[C@@H]3C[C@H]3O[C@]132
200 | 250 | 290 | 380 | CC(=O)O[C@H]1C=C([C@H](C)[C@H]2CC(C)=C(C)C(=O)O2)[C@@]2(C)CC[C@H]3[C@@H](C[C@H]4O[C@]45[C@@H](OC(=O)/C=C/C(=O)N4CCCC4)C=CC(=O)[C@]35C)[C@]12O
160 | 370 | 310 | 610 | CC(=O)O[C@H]1C=C([C@H](C)[C@H]2CC(C)=C(C)C(=O)O2)[C@@]2(C)CC[C@H]3[C@@H](C[C@H]4O[C@]45[C@@H](OC(=O)/C=C/C(=O)N4CCCCC4)C=CC(=O)[C@]35C)[C@]12O
650 | 810 | 420 | 1390 | CC(=O)O[C@H]1C=C([C@H](C)[C@H]2CC(C)=C(C)C(=O)O2)[C@@]2(C)CC[C@H]3[C@@H](C[C@H]4O[C@]45[C@@H](OC(=O)/C=C/c4cccc(C(F)(F)F)c4)C=CC(=O)[C@]35C)[C@]12O
350 | 190 | 360 | 620 | CC(=O)O[C@H]1C=C([C@H](C)[C@H]2CC(C)=C(C)C(=O)O2)[C@@]2(C)CC[C@H]3[C@@H](C[C@H]4O[C@]45[C@@H](OC(=O)/C=C/C(=O)N(C(C)C)C(C)C)C=CC(=O)[C@]35C)[C@]12O
250 | 300 | 310 | 450 | CCN(CC)C(=O)/C=C/C(=O)O[C@H]1C=CC(=O)[C@]2(C)[C@H]3CC[C@]4(C)C([C@H](C)[C@H]5CC(C)=C(C)C(=O)O5)=C[C@H](OC(C)=O)[C@@]4(O)[C@@H]3C[C@H]3O[C@]132

— ChEMBL document CHEMBL4665792 (J Med Chem, 2020)
